According to US11419945B2, “Antigen binding proteins” (Glaxo Group Limited, priority 2011, dated 2022):

Columns and labels:
[1] = test system: five multiple myeloma target cell lines; test: ADCC of afucosylated J6M0 on MM cell lines (panel); assay type: cell-based; conditions: human PBMC, E:T ratio 50:1, 18 hours
Experimental: (§1) FIG. 18: ADCC dose response curves of CA8 J6M0 Potelligent against a panel of 5 multiple myeloma lines—Human PBMC were incubated with multiple myeloma target cells in the presence of varying concentrations of CA8 J6M0 potelligent antibody at an E:T ratio of 50:1 for 18 hours. The percentage of target cells remaining in the effector plus target mixture was then measured by FACS using a fluorescently labelled anti-CD138 antibody to detect the target cells and the percent cytotoxicity calculated. Example dose response curves for CA8 J6M0 potelligent against the five multiple myeloma cell lines tested—[…], RPMI8226, JJN-3, OPM-2, and U266. Each data point is from a singlicate value.
(§2) Human PBMC were incubated with multiple myeloma target cells at an E:T ratio of 50:1 in presence of varying concentrations of afucosylated (Potelligent) J6M0 The percentage of target cells remaining in the effector+target cell mixture after 18 hours was measured by FACS using a fluorescently labelled anti-CD138 antibody to detect the target cells and the percent lysis calculated. This is representative of several experiments.

[2] = test system: Europium labelled ARH77-10B5 cells; test: ADCC potency of conjugated, afucosylated J6M0; assay type: cell-based, human; conditions: PBMC: target cell ratio 50:1, up to 10000 ng/ml, 2 hours
Experimental: FIG. 17: ADCC activity of ADC J6M0 molecules—Figure showing ADCC assay on J6M0 antibodies using ARH77 BCMA expressing target cells. Human PBMC were incubated with europium labelled ARH77 BCMA transfected target cells in the presence of a range of concentrations of J6M0 WT and potelligent BCMA antibodies conjugated to MMAE, MMAF, or unconjugated Europium release was monitored on the Victor 2 1420 multilabel reader.
Afucosylated J6M0 conjugated to MMAE or MMAF was tested in ADCC assays using BCMA transfectants to ensure that its ADCC activity was not compromised by the conjugation. Europium labelled ARH77-10B5 cells were incubated with various J6M0 WT and Potelligent BCMA antibodies at concentrations up to 10000 ng/ml for 30 minutes prior to the addition of PBMCs (PBMC: target cell ratio 50:1). Two hours later an aliquot of cell media was sampled and mixed with enhancement solution. After 30 minutes on a plate shaker, europium release was monitored on the Victor 2 1420 multi-label reader. Datapoints represent means of triplicate values.

OPM-2 = test: ADCC of afucosylated J6M0, OPM-2; assay type: cell-based, human; conditions: OPM-2, ADCC, PBMC E:T 50:1, 18 hours; one value per assay/donor (A-K)
Experimental: as §1, §2

U266 = test: ADCC of afucosylated J6M0, U266; assay type: cell-based, human; conditions: PBMC E:T 50:1, 18 hours, one value per assay/donor (A-K)
Experimental: as §1, §2

J6M0 Potelligent: humanised CA8 version J6M0 in afucosylated (Potelligent) form
ADCC activity [1]: showed ADCC activity against all five multiple myeloma target cell lines tested
ADCC potency (europium release) [2]: lower EC50 and higher maximal lysis
EC50 (OPM-2): 4.15 ng/mL
EC50 (U266): 9.04 ng/mL
